Laboratory results taken from US20110263693A1, “CELASTROL, GEDUNIN, AND DERIVATIVES THEREOF AS HSP90 INHIBITORS” (DANA-FARBER CANCER INSTITUTE, INC., priority 2006, published 2011).

Tests used:
[1] = system: androgen signaling signature in LNCaP cells; experiment: GE-HTS androgen signaling signature assay / screen; details: LNCaP, 1 nM R1881 plus compound ~20 μM, 24 hr; count of 3 replicates
celastrol signature = experiment: Connectivity Map query with the celastrol signature; assay type: cell-based, human; design: key to celastrol score (connectivity score): connectivity score, based on Kolmogorov-Smirnov statistic; details: for celastrol score (connectivity score): enrichment of the celastrol signature (1.25 μM celastrol at 6 h, LNCaP) in the compound's Connectivity Map profiles, 6 hr treatment; for celastrol rank: rank by celastrol score among 164 Connectivity Map compounds
Procedure, shortened: (§1)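 LNCaP cells received celastrol 1.25 μM or gedunin 20 μM for 6 h. Each signature was scored by Kolmogorov–Smirnov-based connectivity against 453 build01 profiles, mostly 6 h treatments of MCF7 cells.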

gedunin signature = experiment: Connectivity Map query with the gedunin signature; assay type: cell-based, human; design: key to gedunin score (connectivity score): connectivity score, based on Kolmogorov-Smirnov statistic; details: for gedunin score (connectivity score): enrichment of the gedunin signature (20 μM gedunin at 6 hours, LNCaP) in the compound's Connectivity Map profiles, 6 hr treatment; for gedunin rank: rank by gedunin score among 164 Connectivity Map compounds
Procedure, shortened: as §1

| Molecule | celastrol score (connectivity score) (celastrol signature) | gedunin score (connectivity score) (gedunin signature) | also measured |
| --- | --- | --- | --- |
| CC(=O)O[C@@H]1CC2C(C)(C)[C@H](O)CC[C@]2(C)C2CC[C@@]3(C)[C@H](c4ccoc4)OC(=O)C4OC43[C@@]21C (stereo partly drawn) [3alpha-hydroxydeoxodihydrogedunin] | – | – | GE-HTS screen # replicates that score as the androgon deprived state (n = 3): KNN [1]: 3; GE-HTS screen # replicates that score as the androgon deprived state (n = 3): Naïve Bayes classifier (P < 0.05) [1]: 3; GE-HTS screen # replicates that score as the androgon deprived state (n = 3): unweighted summed score (P < 0.05) [1]: 3; GE-HTS screen # replicates that score as the androgon deprived state (n = 3): weighted summed score (P < 0.05) [1]: 3 |
| CC1(C)C(=O)C=C[C@]2(C)[C@H]3CC[C@@]4(C)[C@H](c5ccoc5)OC(=O)[C@H]5O[C@]54[C@]3(C)C=C[C@@H]12 [7-desacetoxy-6,7-dehydrogedunin] | – | – | GE-HTS screen # replicates that score as the androgon deprived state (n = 3): KNN [1]: 3; GE-HTS screen # replicates that score as the androgon deprived state (n = 3): Naïve Bayes classifier (P < 0.05) [1]: 3; GE-HTS screen # replicates that score as the androgon deprived state (n = 3): unweighted summed score (P < 0.05) [1]: 3; GE-HTS screen # replicates that score as the androgon deprived state (n = 3): weighted summed score (P < 0.05) [1]: 3 |
| CC(=O)O[C@H]1CC[C@]2(C)[C@H]3C(=O)C=C4[C@@H]5[C@@H](C)[C@H](C)CC[C@]5(C(=O)O)CC[C@@]4(C)[C@]3(C)CC[C@H]2C1(C)C [11-oxoursolic acid acetate] | – | – | GE-HTS screen # replicates that score as the androgon deprived state (n = 3): KNN [1]: 3; GE-HTS screen # replicates that score as the androgon deprived state (n = 3): Naïve Bayes classifier (P < 0.05) [1]: 1; GE-HTS screen # replicates that score as the androgon deprived state (n = 3): unweighted summed score (P < 0.05) [1]: 3; GE-HTS screen # replicates that score as the androgon deprived state (n = 3): weighted summed score (P < 0.05) [1]: 2 |
| C[C@]12C=CC(=O)C=C1CC[C@@H]1[C@@H]2[C@@H](O)C[C@@]2(C)[C@H]1CC[C@]2(O)C(=O)CO [prednisolone] | 0 | 0 | – |
| CC(C)(Sc1cc(C(C)(C)C)c(O)c(C(C)(C)C)c1)Sc1cc(C(C)(C)C)c(O)c(C(C)(C)C)c1 [probucol] | 0.332 | 0 | – |
| CN1CCN(CCCN2c3ccccc3Sc3ccc(Cl)cc32)CC1 [prochlorperazine] | 0.559 | 0.507 | – |
| O=c1c(O)c(-c2ccc(O)c(O)c2)oc2cc(O)cc(O)c12 [quercetin] | −0.111 | −0.431 | – |
| O=C(c1ccc(OCCN2CCCCC2)cc1)c1c(-c2ccc(O)cc2)sc2cc(O)ccc12 [raloxifene] | 0 | 0.292 | – |
| Oc1ccc(C=Cc2cc(O)cc(O)c2)cc1 [resveratrol] | 0.266 | 0.4 | – |
| CS(=O)(=O)c1ccc(C2=C(c3ccccc3)C(=O)OC2)cc1 [rofecoxib] | 0.088 | 0.148 | – |
| CN(CCOc1ccc(CC2SC(=O)NC2=O)cc1)c1ccccn1 (centres unmarked) [rosiglitazone] | 0.098 | 0 | – |
| CC(=O)c1c(O)c(C)c(O)c(Cc2c(O)c3c(c(C(=O)/C=C/c4ccccc4)c2O)OC(C)(C)C=C3)c1O [rottlerin] | 0.355 | 0.209 | – |
| CO[C@H]1C[C@@H]2CC[C@@H](C)[C@@](O)(O2)C(=O)C(=O)N2CCCC[C@H]2C(=O)O[C@H]([C@H](C)C[C@@H]2CC[C@@H](O)[C@H](OC)C2)CC(=O)[C@H](C)/C=C(\C)[C@@H](O)[C@@H](OC)C(=O)[C@H](C)C[C@H](C)/C=C/C=C/C=C/1C [sirolimus] | −0.283 | 0 | – |
| O=C1CCc2c(ccc3ccccc23)O1 [splitomicin] | −0.525 | 0 | – |
| CN[C@@H]1C[C@H]2O[C@@](C)([C@@H]1OC)n1c3ccccc3c3c4c(c5c6ccccc6n2c5c31)C(=O)NC4 [staurosporine] | 0.092 | 0 | – |
| O=C(O)c1cc(/N=N/c2ccc(S(=O)(=O)Nc3ccccn3)cc2)ccc1O [sulfasalazine] | 0 | 0 | – |
| CSc1ccc(/C=C2/C(C)=C(CC(=O)O)c3cc(F)ccc32)cc1 [sulindac sulfide] | 0 | 0 | – |
| CC1=C(CC(=O)O)c2cc(F)ccc2/C1=C\c1ccc([S+](C)[O-])cc1 (centres unmarked) [sulindac] | 0.207 | 0.177 | – |
| C=CC[C@@H]1/C=C(\C)C[C@H](C)C[C@H](OC)[C@H]2O[C@@](O)(C(=O)C(=O)N3CCCC[C@H]3C(=O)O[C@H](/C(C)=C/[C@@H]3CC[C@@H](O)[C@H](OC)C3)[C@H](C)[C@@H](O)CC1=O)[C@H](C)C[C@@H]2OC [tacrolimus] | 0 | 0 | – |
| CC/C(=C(\c1ccccc1)c1ccc(OCCN(C)C)cc1)c1ccccc1 [tamoxifen] | 0 | 0.216 | – |

| Molecule | celastrol score (connectivity score) (celastrol signature) | gedunin score (connectivity score) (gedunin signature) | also measured |
| --- | --- | --- | --- |
| NCCNCCNCCNCCN [tetraethylenepentamine] | −0.039 | −0.092 | – |
| O=C1CCC(N2C(=O)c3ccccc3C2=O)C(=O)N1 (centres unmarked) [thalidomide] | −0.256 | 0.121 | – |
| CSc1ccc2c(c1)N(CCC1CCCCN1C)c1ccccc1S2 (centres unmarked) [thioridazine] | 0.308 | 0.522 | – |
| Nc1nc2nc[nH]c2c(=S)[nH]1 [tioguanine] | 0 | −0.613 | – |
| CCCCNC(=O)NS(=O)(=O)c1ccc(C)cc1 [tolbutamide] | 0.497 | 0 | – |
| CCCc1c(OCCCCc2nnn[nH]2)ccc(C(C)=O)c1O [tomelukast] | 0.388 | 0 | – |
| CC1(C)O[C@@H]2[C@@H](CO[C@@]3(COS(N)(=O)=O)OC(C)(C)O[C@@H]23)O1 [topiramate] | 0 | 0 | – |
| CC1=C(/C=C/C(C)=C/C=C/C(C)=C/C(=O)O)C(C)(C)CCC1 [tretinoin] | −0.084 | −0.206 | – |
| CC(/C=C/C(=O)NO)=C\[C@@H](C)C(=O)c1ccc(N(C)C)cc1 [trichostatin A] | −0.02 | 0.427 | celastrol rank (celastrol signature): 141; gedunin rank (gedunin signature): 29 |
| Cc1c(C)c2c(c(C)c1O)CCC(C)(COc1ccc(CC3SC(=O)NC3=O)cc1)O2 (centres unmarked) [troglitazone] | 0.42 | 0.167 | – |
| COc1cc(/C=C(\C#N)C(N)=O)cc(CSc2nc3ccccc3s2)c1O [tyrphostin AG-825] | 0 | 0 | celastrol rank (celastrol signature): 137; gedunin rank (gedunin signature): 141 |
| COc1cc2ncnc(Nc3cccc(Cl)c3)c2cc1OC [tyrphostin AG-1478] | 0 | 0.529 | celastrol rank (celastrol signature): 127; gedunin rank (gedunin signature): 14 |
| CCCC(CCC)C(=O)O [valproic acid] | 0.086 | 0.136 | – |
| O=C(CCCCCCC(=O)Nc1ccccc1)NO [vorinostat] | 0 | 0.554 | – |
| COC[C@H]1OC(=O)c2coc3c2[C@@]1(C)C1=C(C3=O)[C@@H]2CCC(=O)[C@@]2(C)C[C@H]1OC(C)=O [wortmannin] | −0.324 | 0.126 | – |
| COC(=O)[C@@H]1[C@H]2C[C@H]3c4[nH]c5ccccc5c4CCN3C[C@@H]2CC[C@@H]1O [yohimbine] | 0 | 0 | – |
| BW-B70C | 0.719 | 0.557 | celastrol rank (celastrol signature): 10; gedunin rank (gedunin signature): 12 |
| butirosin | 0 | −0.55 | celastrol rank (celastrol signature): 132; gedunin rank (gedunin signature): 162 |
| depudecin | 0.22 | 0.176 | – |
| ikarugamycin | 0.172 | 0 | celastrol rank (celastrol signature): 59; gedunin rank (gedunin signature): 124 |
